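Step 1: Grow cells in 96-well plates. Step 2: Expose to compound for 48 hours at 5 concentrations. Step 3: Interpolate endpoints linearly; if unreached, use highest concentration. Definition used: TGI = concentration required for complete inhibition of growth.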
Columns and labels:
Assay in all cases: inhibition of tumour cell growth, NCI panel, 48 h
[1] = system: SNB-19 CNS
[2] = system: COLO 205 colon
[3] = system: SW-620 colon
[4] = system: SK-MEL-2 melanoma
[5] = system: LOX IMVI melanoma
[6] = system: RPMI-8226 leukemia
[7] = system: SF-268 CNS
[8] = system: HL-60(TB) leukemia
[9] = system: MDA-N
[10] = system: HOP-92 NSCLC
[11] = system: A549 NSCLC
[12] = system: K-562 leukemia
[13] = system: U251 CNS
[14] = system: MCF7 breast
[15] = system: NCI-H460 lung
[16] = system: OVCAR-4 ovarian
[17] = system: T-47D breast
[18] = system: A498 renal
[19] = system: MOLT-4 leukemia
[20] = system: OVCAR-5 ovarian
[21] = system: IGROV1 ovarian
[22] = system: EKVX NSCLC
[23] = system: NCI-H23 lung
[24] = system: SNB-75 CNS
[25] = system: NCI-H522 lung
[26] = system: M14 melanoma
[27] = system: HT29 colon
[28] = system: HOP-62 NSCLC
[29] = system: ACHN renal
[30] = system: KM12 colon
[31] = system: OVCAR-8 ovarian
[32] = system: CCRF-CEM leukemia
[33] = system: NCI-H226 lung
[34] = system: MDA-MB-231 breast
[35] = system: HCC-2998 colon
[36] = system: UACC-62 melanoma
[37] = system: SK-OV-3 ovarian
[38] = system: RXF 393 renal
[39] = system: OVCAR-3 ovarian
[40] = system: PC-3 prostate
[41] = system: SN12C renal
[42] = system: UO-31 renal
[43] = system: CAKI-1 renal
[44] = system: BT-549 breast
[45] = system: HS 578T breast
[46] = system: MDA-MB-435
[47] = system: SK-MEL-5 melanoma
[48] = system: 786-0 renal
[49] = system: DU-145 prostate
[50] = system: HCT-15 colon
[51] = system: SF-539 CNS
[52] = system: HCT-116 colon
[53] = system: UACC-257 melanoma
[54] = system: NCI/ADR-RES ovarian
[55] = system: SK-MEL-28 melanoma
[56] = system: SF-295 CNS
[57] = system: MALME-3M melanoma
[58] = system: SR leukemia
[59] = system: TK-10 renal
[60] = system: SNB-78 CNS
[61] = system: DMS 273 small cell lung
[62] = system: KM20L2 colon
[63] = system: M19-MEL melanoma
[64] = system: DLD-1 colon
[65] = system: XF 498 CNS
[66] = system: DMS 114 small cell lung
[67] = system: LXFL 529 NSCLC

COc1ccc2cc(CNCCCN3CCN(CCCNCc4ccc5cc(OC)ccc5c4)CC3)ccc2c1
TGI [1]: 3.18 µM | TGI [2]: 2.83 µM | TGI [3]: 0.982 µM | TGI [4]: 3.42 µM | TGI [5]: 1.48 µM | TGI [6]: 0.577 µM | TGI [7]: 3.32 µM | TGI [8]: 0.594 µM | TGI [9]: 2.78 µM | TGI [10]: 2.82 µM | TGI [11]: 3.31 µM | TGI [12]: 0.366 µM | TGI [13]: 3.13 µM | TGI [14]: 2.85 µM | TGI [15]: 2.87 µM | TGI [16]: 3.48 µM | TGI [17]: 3.19 µM | TGI [18]: 3.07 µM | TGI [19]: 5.72 µM | TGI [20]: 2.6 µM | TGI [21]: 3.12 µM | TGI [22]: 3.18 µM | TGI [23]: 3.5 µM | TGI [24]: 3.08 µM | TGI [25]: 3.81 µM | TGI [26]: 3.01 µM | TGI [27]: 1.65 µM | TGI [28]: 3.13 µM | TGI [29]: 3.19 µM | TGI [30]: 2.14 µM | TGI [31]: 3.21 µM | TGI [32]: 1.3 µM | TGI [33]: 3.69 µM | TGI [34]: 3.42 µM | TGI [35]: 0.643 µM | TGI [36]: 1.36 µM | TGI [37]: 2.72 µM | TGI [38]: 2.85 µM | TGI [39]: 3.02 µM | TGI [40]: 2.36 µM | TGI [41]: 3.11 µM | TGI [42]: 3.14 µM | TGI [43]: 3.2 µM | TGI [44]: 3.26 µM | TGI [45]: 3.32 µM | TGI [46]: 2.99 µM | TGI [47]: 3.05 µM | TGI [48]: 2.88 µM | TGI [49]: 2.88 µM | TGI [50]: 3.01 µM | TGI [51]: 3.39 µM | TGI [52]: 2.56 µM | TGI [53]: 3.86 µM | TGI [54]: 6.51 µM | TGI [55]: 3.09 µM | TGI [56]: 3.34 µM | TGI [57]: 3.14 µM | TGI [58]: 0.658 µM | TGI [59]: 3.3 µM

C/C(=N\[N+](C)(C)C)C(c1ccccc1)C1(c2ccccc2)C(c2ccccc2)=C1c1ccccc1 (stereo not drawn)
TGI [1]: > 100 µM | TGI [3]: > 100 µM | TGI [4]: > 100 µM | TGI [60]: > 100 µM | TGI [5]: > 100 µM | TGI [6]: > 100 µM | TGI [8]: > 100 µM | TGI [10]: > 100 µM | TGI [11]: > 100 µM | TGI [12]: > 100 µM | TGI [13]: > 100 µM | TGI [15]: > 100 µM | TGI [16]: > 100 µM | TGI [18]: > 100 µM | TGI [19]: > 100 µM | TGI [20]: > 100 µM | TGI [61]: > 100 µM | TGI [21]: > 100 µM | TGI [62]: > 100 µM | TGI [22]: > 100 µM | TGI [23]: > 100 µM | TGI [25]: > 100 µM | TGI [26]: > 100 µM | TGI [27]: > 100 µM | TGI [28]: > 100 µM | TGI [29]: > 100 µM | TGI [30]: > 100 µM | TGI [31]: > 100 µM | TGI [32]: > 100 µM | TGI [63]: > 100 µM | TGI [64]: > 100 µM | TGI [33]: 93.4 µM | TGI [35]: > 100 µM | TGI [36]: > 100 µM | TGI [37]: > 100 µM | TGI [38]: 73 µM | TGI [39]: > 100 µM | TGI [41]: > 100 µM | TGI [42]: > 100 µM | TGI [65]: 50.4 µM | TGI [43]: > 100 µM | TGI [47]: > 100 µM | TGI [48]: > 100 µM | TGI [50]: > 100 µM | TGI [51]: > 100 µM | TGI [52]: > 100 µM | TGI [53]: > 100 µM | TGI [56]: > 100 µM | TGI [57]: > 100 µM | TGI [59]: > 100 µM

CC1C(c2ccccc2)=CCON1c1ccccc1 (stereo not drawn)
TGI [1]: > 100 µM | TGI [2]: > 100 µM | TGI [3]: > 100 µM | TGI [4]: > 100 µM | TGI [60]: > 100 µM | TGI [5]: > 100 µM | TGI [6]: > 100 µM | TGI [7]: > 100 µM | TGI [8]: > 100 µM | TGI [11]: > 100 µM | TGI [12]: > 100 µM | TGI [13]: > 100 µM | TGI [15]: > 100 µM | TGI [16]: > 100 µM | TGI [19]: > 100 µM | TGI [20]: > 100 µM | TGI [21]: > 100 µM | TGI [62]: > 100 µM | TGI [22]: > 100 µM | TGI [23]: > 100 µM | TGI [66]: > 100 µM | TGI [24]: > 100 µM | TGI [67]: > 100 µM | TGI [25]: > 100 µM | TGI [26]: > 100 µM | TGI [27]: > 100 µM | TGI [28]: > 100 µM | TGI [29]: > 100 µM | TGI [30]: > 100 µM | TGI [31]: > 100 µM | TGI [32]: > 100 µM | TGI [63]: > 100 µM | TGI [64]: > 100 µM | TGI [33]: > 100 µM | TGI [35]: > 100 µM | TGI [36]: > 100 µM | TGI [37]: > 100 µM | TGI [38]: > 100 µM | TGI [39]: > 100 µM | TGI [41]: > 100 µM | TGI [42]: > 100 µM | TGI [65]: > 100 µM | TGI [43]: > 100 µM | TGI [47]: > 100 µM | TGI [48]: > 100 µM | TGI [50]: > 100 µM | TGI [51]: > 100 µM | TGI [52]: > 100 µM | TGI [53]: > 100 µM | TGI [55]: > 100 µM | TGI [56]: > 100 µM | TGI [57]: > 100 µM | TGI [58]: > 100 µM

COC1CCC(OS(C)(=O)=O)CO1 (stereo not drawn)
TGI [1]: > 100 µM | TGI [2]: > 100 µM | TGI [4]: > 100 µM | TGI [60]: > 100 µM | TGI [6]: 98.2 µM | TGI [7]: > 100 µM | TGI [8]: > 100 µM | TGI [10]: > 100 µM | TGI [12]: > 100 µM | TGI [13]: > 100 µM | TGI [15]: > 100 µM | TGI [16]: > 100 µM | TGI [18]: > 100 µM | TGI [19]: > 100 µM | TGI [20]: > 100 µM | TGI [21]: > 100 µM | TGI [62]: > 100 µM | TGI [23]: > 100 µM | TGI [66]: > 100 µM | TGI [24]: > 100 µM | TGI [67]: > 100 µM | TGI [25]: > 100 µM | TGI [26]: > 100 µM | TGI [27]: > 100 µM | TGI [28]: > 100 µM | TGI [29]: > 100 µM | TGI [30]: > 100 µM | TGI [32]: 91.7 µM | TGI [63]: > 100 µM | TGI [36]: > 100 µM | TGI [37]: > 100 µM | TGI [38]: > 100 µM | TGI [39]: > 100 µM | TGI [42]: > 100 µM | TGI [51]: > 100 µM | TGI [52]: > 100 µM | TGI [53]: > 100 µM | TGI [55]: > 100 µM | TGI [56]: > 100 µM | TGI [57]: > 100 µM | TGI [58]: > 100 µM

Source: PubChem BioAssay (NCI)
